Test results as given in PMC12203525, “The insight into the biology of five homologous lectins produced by the entomopathogenic bacterium and nematode symbiont Photorhabdus laumondii” (Glycobiology, 2025).
Read-outs that look alike come from different tables or passages of the source.

What was measured:
PLL [1] = target: T1, PLL (Photorhabdus laumondii subsp. laumondii, UniProt Q7N8J0); assay: Isothermal titration calorimetry (ITC); type: binding, Photorhabdus laumondii subsp. laumondii TT01
Description: (§1) ITC experiments were performed using an Auto-ITC200 calorimeter or Automated PEAQ-ITC calorimeter (both Malvern Panalytical, Malvern, UK). Measurements were carried out at 25 °C in the Tris buffer. Before the analyses, lectins were extensively dialyzed against the Tris buffer and the dialysate was used to dissolve ligands. The protein (0.1 mM or 0.2 mM) in the cell was titrated with 2 μL injections of the ligand (20 mM or 40 mM). […] Experiments for each interacting ligand were carried out in triplicates. Integrated heat effects were evaluated by nonlinear regression using a single-site binding model in Origin 7 (OriginLab, Northampton, USA) ([Wiseman et al. 1989]). Triplicate measurements were fitted simultaneously using a global fit approach. Due to the low affinity of the interaction, the binding stoichiometry was fixed during the fitting.

PLL4 [2] = target: T2, PLL4 (Photorhabdus laumondii subsp. laumondii, UniProt Q7N8I6); assay: Isothermal titration calorimetry (ITC); type: binding, Photorhabdus laumondii subsp. laumondii TT01; details: for KD / Kd: ITC; for interaction with the sugar in ITC (in words): PLL4
T2 sequence (Q7N8I6 entry or part of it): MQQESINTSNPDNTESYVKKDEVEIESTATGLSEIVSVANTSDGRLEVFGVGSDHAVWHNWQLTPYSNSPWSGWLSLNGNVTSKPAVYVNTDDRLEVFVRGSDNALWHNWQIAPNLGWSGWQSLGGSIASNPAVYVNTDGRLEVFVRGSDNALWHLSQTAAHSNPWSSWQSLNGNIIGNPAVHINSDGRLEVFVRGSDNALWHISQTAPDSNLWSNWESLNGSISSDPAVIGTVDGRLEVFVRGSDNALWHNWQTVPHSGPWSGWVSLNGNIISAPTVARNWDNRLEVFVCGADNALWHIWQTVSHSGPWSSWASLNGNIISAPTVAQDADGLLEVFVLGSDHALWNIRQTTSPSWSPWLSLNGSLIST
Description: as §1

PLL5 [3] = target: T3, PLL5 (Photorhabdus laumondii subsp. laumondii, UniProt Q7N8I5); assay: Isothermal titration calorimetry (ITC); type: binding, Photorhabdus laumondii subsp. laumondii TT01; details: for KD / Kd: ITC; for interaction with the sugar in ITC (in words): PLL5
T3 sequence (Q7N8I5 entry or part of it): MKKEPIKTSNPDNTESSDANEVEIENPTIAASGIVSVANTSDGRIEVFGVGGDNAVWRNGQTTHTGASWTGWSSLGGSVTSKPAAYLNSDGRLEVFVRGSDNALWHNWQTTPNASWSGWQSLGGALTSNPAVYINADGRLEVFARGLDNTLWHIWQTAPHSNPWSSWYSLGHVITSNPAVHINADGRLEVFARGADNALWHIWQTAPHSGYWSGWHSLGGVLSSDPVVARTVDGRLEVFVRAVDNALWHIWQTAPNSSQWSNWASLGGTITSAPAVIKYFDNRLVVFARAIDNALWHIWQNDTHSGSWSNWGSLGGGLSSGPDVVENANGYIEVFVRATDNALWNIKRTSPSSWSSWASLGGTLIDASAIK
Description: as §1

PLL2 [4] = target: PLL2; parameters: method as in Fujdiarová et al, 2021, Faltinek et al, 2019; details: ref Fujdiarová et al, 2021, Faltinek et al, 2019, cited from earlier work; for Kd: ITC; for interaction with the sugar in ITC (in words): PLL2
PLL3 [5] = target: PLL3; parameters: method as in Fujdiarová et al, 2021, Faltinek et al, 2019; details: ref Fujdiarová et al, 2021, Faltinek et al, 2019, cited from earlier work; for Kd: ITC; for interaction with the sugar in ITC (in words): PLL3
PLL2 [6] = test system: PLL2; parameters: method as in Faltinek et al. 2019; Fujdiarová et al. 2021; details: inhibition of PLL2 binding to immobilized MGMR, ref Faltinek et al. 2019, Fujdiarová et al. 2021, cited from earlier work
PLL3 [7] = test system: PLL3; parameters: method as in Faltinek et al. 2019; Fujdiarová et al. 2021; details: inhibition of PLL3 binding to immobilized MGMR, ref Faltinek et al. 2019, Fujdiarová et al. 2021, cited from earlier work
PLL [8] = target: T1, PLL; assay: SPR inhibition assay on the MGMR channel; parameters: species or system Photorhabdus laumondii subsp. laumondii TT01; details: inhibition of PLL (250 nM) binding to immobilized MGMR
Description: (§2) SPR experiments were carried out on BIAcore T200 or BIAcore S200 instruments (GE Healthcare, UK). Sugar moieties were immobilized on the chip surface using the standard procedures according to the manufacturer’s instructions. Measurements with immobilized MGMR were performed on the chip prepared previously (high-density chip) ([Fujdiarová et al. 2021]). Measurements with immobilized α-L-fucose were performed on the streptavidin chip (GE Healthcare, UK). Biotinylated α-L-fucose was immobilized on channel 2 to yield a final response of 29 RU, unmodified channel 1 was used as a control.
(§3) Measurements were performed in Tris buffer with the addition of 0.05% Tween 20 at a flow rate of 30 μl/min at 25 °C. […] 50 mM NaOH for 30 s (flow 30 μl/min) was used for chip regeneration. To determine KDs (app) towards MGMR, 2-fold dilution series of lectins was used (PLL: 0.048 – 50 μM, PLL4: 0.008 - 2 μM; PLL5: 1.9 – 500 nM). The data were evaluated with the BIAcore T200 or BIAcore S200 evaluation software using a steady state approach. To determine KD(app) towards α-L-fucose, 2-fold dilution series of lectins was used (PLL: 1.25 – 20 μM, PLL4: 0.39 – 12.5 μM; PLL5: 0.12 – 30 μM). The data were evaluated with the BIAcore T200 or BIAcore S200 evaluation software using a steady state approach (PLL5) or a single-cycle kinetics approach (PLL, PLL4). For SPR inhibition experiments on the MGMR channel, 250 nM PLL, 250 nM PLL4 or 62 nM PLL5, respectively, was used. Proteins of the given concentration were mixed with a concentration series of tested inhibitors (0.01 - 0.4 M). Proteins without an inhibitor were used as a control. The response of the lectin bound to the sugar surface at equilibrium was plotted against the concentration of inhibitor in order to determine IC50. The response in the appropriate blank channel was subtracted prior to all evaluations.

PLL4 [9] = target: T2, PLL4; assay: SPR inhibition assay on the MGMR channel; parameters: species or system Photorhabdus laumondii subsp. laumondii TT01; details: inhibition of PLL4 (250 nM) binding to immobilized MGMR
Description: as §2, §3

PLL5 [10] = target: T3, PLL5; assay: SPR inhibition assay on the MGMR channel; parameters: species or system Photorhabdus laumondii subsp. laumondii TT01; details: inhibition of PLL5 (62 nM) binding to immobilized MGMR
Description: as §2, §3

PLL4 [11] = target: T2, PLL4; assay: Glycan microarray screening (634 saccharide ligands); type: binding, Photorhabdus laumondii subsp. laumondii TT01; details: DyLight488-labelled PLL4, 200 μg/mL
Description: Lectins were fluorescently labelled with DyLight 488 according to the manufacturer’s instructions and the unbound dye was extensively dialyzed out of the protein solution. The microarray chip (Semiotik LLC, Moscow, Russia, batch OSPS280715) containing 634 saccharide ligands, each in 6 replicates, was treated with PBS (137 mM NaCl, 2.7 mM KCl, 8 mM Na2HPO4, […], pH 7.4) with added 0.1% Tween-20 for 15 min. The labelled proteins (200 μg/mL) were then separately applied to the chip surface and incubated in a humidity chamber at 37 °C for 1 h. After the incubation, the unbound protein was washed out with PBS containing 0.05% Tween-20 and deionized water. The chip was dried by airflow and scanned using an InnoScan1100 AL (Innopsys, Carbonne, France) with a 488 nm laser. The data were analyzed with the software Mapix 8.2.2 and an online glycan chip converter (Semiotic, https://rakitko.shinyapps.io/semiotik).

[12] = ITC, stoichiometry N fixed to 2
[13] = ITC, stoichiometry N fixed to 4
[14] = ITC, stoichiometry N fixed to 6
[15] = ITC, stoichiometry N fixed to 8
[16] = PLL4, stoichiometry N fixed to 2
[17] = PLL4, stoichiometry N fixed to 4
[18] = PLL4, stoichiometry N fixed to 6
[19] = PLL4, stoichiometry N fixed to 8
[20] = PLL5, stoichiometry N fixed to 2
[21] = PLL5, stoichiometry N fixed to 4
[22] = PLL5, stoichiometry N fixed to 6
[23] = PLL5, stoichiometry N fixed to 8
[24] = PLL2, stoichiometry N fixed to 4
[25] = PLL3, stoichiometry N fixed to 2
[26] = PLL3, stoichiometry N fixed to 4
[27] = PLL3, stoichiometry N fixed to 6
[28] = PLL3, stoichiometry N fixed to 8
[29] = PLL2, stoichiometry N fixed to 2
[30] = PLL2, stoichiometry N fixed to 6
[31] = PLL2, stoichiometry N fixed to 8

T1 sequence (Q7N8J0 entry or part of it): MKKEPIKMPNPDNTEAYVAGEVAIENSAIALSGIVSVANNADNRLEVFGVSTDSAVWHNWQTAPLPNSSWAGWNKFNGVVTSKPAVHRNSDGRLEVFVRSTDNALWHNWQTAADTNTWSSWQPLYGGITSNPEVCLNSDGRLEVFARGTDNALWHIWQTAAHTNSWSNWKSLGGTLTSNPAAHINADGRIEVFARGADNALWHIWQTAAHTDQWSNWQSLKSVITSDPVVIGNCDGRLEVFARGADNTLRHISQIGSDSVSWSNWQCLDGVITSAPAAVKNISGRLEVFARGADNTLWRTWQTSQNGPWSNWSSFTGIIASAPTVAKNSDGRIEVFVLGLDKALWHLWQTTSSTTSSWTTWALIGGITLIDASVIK

Row | Structure (SMILES) | interaction with the sugar in ITC (in words) (PLL [1]) | KD (PLL [1]; [12]) | KD (PLL [1]; [13]) | KD (PLL [1]; [14]) | KD (PLL [1]; [15]) | KD (PLL4 [2]; [16]) | KD (PLL4 [2]; [17]) | KD (PLL4 [2]; [18]) | KD (PLL4 [2]; [19]) | interaction with the sugar in ITC (in words) (PLL4 [2]) | KD (PLL5 [3]; [20]) | KD (PLL5 [3]; [21]) | KD (PLL5 [3]; [22]) | KD (PLL5 [3]; [23]) | Kd (PLL2 [4]; [24]) | Kd (PLL3 [5]; [25]) | Kd (PLL3 [5]; [26]) | Kd (PLL3 [5]; [27]) | Kd (PLL3 [5]; [28]) | IC50 (PLL2 [6]; read-out: IC50) | other results
1 | OC[C@H]1OC(O)[C@H](O)[C@@H](O)[C@@H]1O (stereo partly drawn) [D-Glc] | did not bind these sugars significantly | No int | No int | No int | No int | No int | No int | No int | No int | did not bind these sugars significantly | No int | No int | No int | No int | 3.6 ± 0.21 mM | 4 ± 0.12 mM | 3.6 ± 0.08 mM | 3.3 ± 0.07 mM | 3.1 ± 0.11 mM | – | interaction with the sugar in ITC (in words) (PLL5 [3]): did not bind these sugars significantly; interaction with the sugar in ITC (in words) (PLL2 [4]): interacted; interaction with the sugar in ITC (in words) (PLL3 [5]): interacted
2 | O=C[C@H](O)[C@@H](O)[C@@H](O)[C@H](O)CO [D-Gal, D-galactose] | did not bind these sugars significantly | No int | No int | No int | No int | No int | No int | No int | No int | did not bind these sugars significantly | No int | No int | No int | No int | 0.4 ± 0.03 mM | 3 ± 0.06 mM | 2.7 ± 0.14 mM | 2.5 ± 0.13 mM | 2.2 ± 0.06 mM | > 100 mM | interaction with the sugar in ITC (in words) (PLL5 [3]): did not bind these sugars significantly; IC50 (PLL2 [6]): not PLL2; IC50 (PLL3 [7]): inhibited only the binding of PLL3; Kd (PLL2 [4]; [29]): 0.5 ± 0.02 mM; Kd (PLL2 [4]; [30]): 0.3 ± 0.04 mM; Kd (PLL2 [4]; [31]): 0.3 ± 0.06 mM; interaction with the sugar in ITC (in words) (PLL2 [4]): interacted; interaction with the sugar in ITC (in words) (PLL3 [5]): interacted
3 | CO[C@@H]1O[C@@H](C)[C@@H](O)[C@@H](O)[C@@H]1O [αMeFuc, methyl-α-L-fucoside] | – | – | – | – | – | – | – | – | – | – | – | – | – | – | 0.4 ± 0.02 mM | – | 0.7 ± 0.03 mM | – | – | 0.1 ± 0.01 mM | IC50 (PLL [8]): 4 ± 1.35 mM; IC50 (PLL4 [9]): 1.4 ± 0.04 mM; IC50 (PLL5 [10]): 1.7 ± 0.13 mM; Kd (PLL [1]; [12]): 3.6 ± 0.07 mM; Kd (PLL4 [2]; [17]): 4.9 ± 0.08 mM; Kd (PLL5 [3]; [21]): 4.2 ± 0.17 mM; IC50 (PLL3 [7]; read-out: IC50): 1 ± 0.05 mM
4 | OC[C@H]1O[C@@H](O[C@H]2[C@H](O)[C@@H](O)C(O)O[C@@H]2CO)[C@H](O)[C@@H](O)[C@H]1O (mixture of isomers) [lactose] | – | – | – | – | – | – | – | – | – | – | – | – | – | – | – | – | – | – | – | – | glycan array binding (in words) (PLL4 [11]): recognized
5 | CC(=O)N[C@@H]1[C@@H](O)[C@H](O[C@@H]2O[C@H](CO)[C@H](O)[C@H](O)[C@H]2O[C@@H]2O[C@H](C)[C@H](O)[C@H](O)[C@H]2O)[C@@H](CO)O[C@H]1O [D-Fucβ1-2-D-Galβ1-4-D-GlcNAcβ] | – | – | – | – | – | – | – | – | – | – | – | – | – | – | – | – | – | – | – | – | glycan array binding (in words) (PLL4 [11]): recognized
6 | C[C@H](O)[C@@H](O)[C@@H](O)[C@H](O)C=O [L-Fuc, L-fucose] | – | No int | No int | No int | No int | – | – | – | – | – | – | – | – | – | 2.6 ± 0.08 mM | 3.6 ± 0.14 mM | 3.3 ± 0.12 mM | 3.1 ± 0.1 mM | 2.9 ± 0.1 mM | 1.2 ± 0.04 mM | IC50 (PLL [8]): 19.5 ± 7.5 mM; IC50 (PLL4 [9]): 5.7 ± 0.21 mM; IC50 (PLL5 [10]): 3.6 ± 0.13 mM; Kd (PLL4 [2]; [16]): 31.2 ± 0.95 mM; Kd (PLL4 [2]; [17]): 29.9 ± 0.9 mM; Kd (PLL4 [2]; [18]): 28.6 ± 0.89 mM; Kd (PLL4 [2]; [19]): 27.2 ± 0.86 mM; Kd (PLL5 [3]; [20]): 16.6 ± 1.02 mM; Kd (PLL5 [3]; [21]): 16 ± 1.01 mM; Kd (PLL5 [3]; [22]): 15.4 ± 1 mM; Kd (PLL5 [3]; [23]): 14.7 ± 0.99 mM; IC50 (PLL3 [7]; read-out: IC50): 2.5 ± 0.09 mM; Kd (PLL2 [4]; [29]): 2.8 ± 0.07 mM; Kd (PLL2 [4]; [30]): 2.4 ± 0.08 mM; Kd (PLL2 [4]; [31]): 2.1 ± 0.1 mM
7 | CO[C@@H]([C@H](O)[C@H](O)CO)[C@@H](O)C=O [3OMG, 3-O-methyl-D-glucose] | did not bind these sugars significantly | No int | No int | No int | No int | No int | No int | No int | No int | did not bind these sugars significantly | No int | No int | No int | No int | – | 11.5 ± 1.55 mM | 11.1 ± 1.5 mM | 10.7 ± 1.5 mM | 10.2 ± 0.62 mM | 5.2 ± 0.91 mM | IC50 (PLL [8]): 48.1 ± 14.9 mM; IC50 (PLL4 [9]): 13.1 ± 0.84 mM; IC50 (PLL5 [10]): 16.9 ± 2.69 mM; interaction with the sugar in ITC (in words) (PLL5 [3]): did not bind these sugars significantly; IC50 (PLL3 [7]; read-out: IC50): 26.4 ± 2.84 mM; Kd (PLL2 [4]; [31]): 11.2 ± 0.8 mM; interaction with the sugar in ITC (in words) (PLL2 [4]): interacted; interaction with the sugar in ITC (in words) (PLL3 [5]): interacted
